How the values were obtained:
[1] = rat, in vivo
[2] = rat, in vivo; remark: listed apart in the source

Structure (SMILES): C[n+]1ccccc1/C=N/O [2-PAMCl, 2-pralidoxime chloride]
- death of all animals, time after injection [1]: ≤ 30 min
- duration of therapeutic plasma drug level (4.0 μg/ml plasma) [2]: 21/4
- time until blood concentration drops below therapeutic level (TL) [2]: 2 to 3 h

— patent US5186941A (priority 1991, dated 1993)
